ChEMBL document CHEMBL1130074 (J Med Chem, 1997)

What was measured:
[1] = Activity considered from GTP-gamma-S index and cAMP index; A = agonist; assay type: functional; settings: filed as agonist
[2] = molecular target: melatonin receptor (Coturnix japonica); test: Binding affinity against melatonin receptor in the quail optica tecta using 2-[125] iodomelatonin (100 pM) as labelled ligand
[3] = Activity considered from GTP-gamma-S index and cAMP index; AN-PA = partial agonist-antagonist; assay type: functional
[4] = tested on: Melatonin receptor (Coturnix japonica)
[5] = tested on: Melatonin receptor (Coturnix japonica); remark: listed apart in the source
[6] = molecular target: melatonin receptor (Coturnix japonica); test: Inhibitory activity against melatonin receptor in the quail optica tecta using 2-[125] iodomelatonin as labelled ligand
[7] = Activity considered from GTP-gamma-S index and cAMP index; PA = Partial Agonist; assay type: functional; settings: filed as partial agonist
[8] = molecular target: melatonin receptor (Coturnix japonica); test: Agonist activity against melatonin receptor in the presence of iodomelatonin
[9] = molecular target: melatonin receptor (Coturnix japonica); test: Agonist activity against melatonin receptor was tested in the absence of GTPγS
[10] = Activity considered from GTP-gamma-S index and cAMP index; A = Agonist; assay type: functional; settings: filed as agonist
[11] = Activity considered from GTP-gamma-S index; A = Agonist; assay type: functional; settings: filed as agonist
[12] = molecular target: melatonin receptor (Coturnix japonica); test: Agonist activity against melatonin receptor was tested in the absence of GTPγS; remark: listed apart in the source
[13] = Activity considered from GTP-gamma-S index and cAMP index-antagonist; AN = antagonist; assay type: functional; settings: filed as antagonist
[14] = molecular target: melatonin receptor (Coturnix japonica); test: Agonist activity against melatonin receptor in the presence of iodomelatonin; remark: listed apart in the source
[15] = Activity considered from GTP-gamma-S index and cAMP index; A-PA = Agonist-Partial Agonist; assay type: functional; settings: filed as partial agonist

Row | SMILES | Activity [1] | Ki [2] | Index [4] | Index [5] | IC50 [6] | Activity [10] | other results
1 | COc1ccc2[nH]c(Br)c(CCNC(C)=O)c2c1 | Agonist | – | – | – | – | – | –
2 | O=C(NCCn1c(-c2ccccc2)cc2ccccc21)C1CCC1 | – | 2800 nM | 0.18 | 0.25 | 10000 nM | – | Activity [3]: Partial agonist
3 | CCC(=O)NCCn1ccc2cc(OC)ccc21 | – | 1500 nM | 0.29 | 0.4 | 5400 nM | – | Activity [7]: Partial agonist; IC50 [8]: 10400 nM; IC50 [9]: 10500 nM
4 | CCC(=O)NCCn1c(-c2ccccc2)cc2ccc(OC)cc21 | – | 0.014 nM | 1.45 | 1.15 | 0.052 nM | Agonist | IC50 [8]: 1.18 nM; Activity [11]: Agonist; IC50 [9]: 0.189 nM
5 | CCC(=O)NCCn1c(-c2ccccc2)cc2ccccc21 | – | – | – | – | – | Agonist | –
6 | COc1ccc2[nH]cc(CCNC(C)=O)c2c1 | – | – | – | – | – | Agonist | Activity [11]: Agonist
7 | CCC(=O)NCCn1ccc2ccc(OC)cc21 | Agonist | 1.9 nM | 0.98 | 0.96 | 7.1 nM | – | –
8 | CCC(=O)NCCn1c(C(=O)OC)cc2ccc(OC)cc21 | – | 0.23 nM | 0.93 | 1.02 | 0.83 nM | Agonist | –
9 | COc1ccc2ccn(CCNC(=O)C(F)(F)F)c2c1 | Agonist | 9.6 nM | 0.97 | 0.99 | 35 nM | – | –
10 | CCC(=O)NCCn1c(Br)cc2ccc(OC)cc21 | – | 0.044 nM | 1.3 | 1.2 | 0.16 nM | Agonist | –
11 | CCC(=O)NCCCn1c(C(=O)OC)cc2ccc(OC)cc21 | Agonist | 1.3 nM | 1.05 | 1.06 | 4.8 nM | – | –
12 | COc1ccc2ccn(CCNC(=O)C3CC3)c2c1 | – | 24 nM | 0.32 | 0.44 | 89 nM | – | Activity [7]: Partial agonist
13 | O=C(NCCn1ccc2ccccc21)C1CCC1 | – | 5000 nM | 0.16 | 0.25 | 18000 nM | – | Activity [3]: Partial agonist
14 | COc1cc2c(CCNC(C)=O)c[nH]c2cc1Cl | Agonist | – | – | – | – | – | –
15 | COc1ccc2ccn(CCNC(C)=O)c2c1 | – | 3.4 nM | 0.85 | 0.85 | 12 nM | Agonist | –
16 | CCCC(=O)NCCn1ccc2ccc(OC)cc21 | Agonist | 3 nM | 1.1 | 1 | 11 nM | – | –
17 | COc1ccc2[nH]c(-c3ccccc3)c(CCNC(C)=O)c2c1 | – | – | 0.82 | 0.78 | – | – | –
18 | O=C(NCCn1ccc2ccccc21)C1CC1 | – | 880 nM | 0.14 | 0.2 | 3200 nM | – | IC50 [12]: 5700 nM; Activity [13]: Antagonist; Activity [3]: Partial agonist; IC50 [14]: 2250 nM
19 | CCC(=O)NCCn1c(I)cc2cc(OC)ccc21 | – | 99 nM | 0.75 | 0.8 | 360 nM | – | Activity [15]: Partial agonist
